According to patent US6642251B1, “Geometrically restricted 2-indolinone derivatives as modulators of protein kinase activity” (Sugen, Inc., priority 1998, dated 2003):
pIC50: −log10 of the molar value.

Assays:
src protein kinase = molecular target: T1, src protein kinase (Gallus gallus, UniProt P00523); assay: Biochemical src assay (bio SRC); as to bio SRC, outcome of primary assay: key: DNH = did not hit in primary assay
T1 construct: made in house; host or cells: Schizosaccharomyces pombe strain SP200
Method: This assay is used to determine src protein kinase activity measuring phosphorylation of a biotinylated peptide as the readout.
a. Yeast transformed with src (Sugen, Inc., Redwood City, Calif.).
1. Coat ELISA plate with 0.5 μg/well anti-src mab in 100 μl of pH 9.6 sodium carbonate buffer; hold at 4° C. overnight.
2. Wash wells once with PBS.
3. Block plate with 0.15 ml 5% milk in PBS for 30 min. at room temperature.
4. Wash plate 5× with PBS.
5. Add 10 μg/well of src transformed yeast lysates diluted in Lysis Buffer (0.1 ml total volume per well). (Amount of lysate may vary between batches.) Shake plate for 20 minutes at room temperature.
1. 4G10 plate: coat 0.5 μg/well 4G10 in 100 μl PBS overnight at 4° C. and block with 150 μl of 5% milk in PBS for 30 minutes at room temperature.
1. Remove unbound proteins.from plates and wash plates 5× with PBS.
2. Add 0.08 ml Kinase Reaction Mixture per well (containing 10 μl of 10×-Kinase Buffer and 10 μM (final concentration) biotin-EEEYEEYEEEYEEEYEEEY per well diluted in water.
3. Add 10 μl of compound diluted in water containing 10% DMSO and pre-incubate for 15 minutes at room temperature.
4. Start kinase reaction by adding 10 μl/well of 0.05 mM ATP in water (5 μM ATP final).
5. Shake ELISA plate for 15 min. at room temperature.
6. Stop kinase reaction by adding 10 μl of 0.5 M EDTA per well.
7. Transfer 90 μl supernatant to a blocked 4G10 coated ELISA plate.
8. Incubate for 30 min. while shaking at room temperature.
9. Wash plate 5× with TBST.
10. Incubate with Vectastain ELITE ABC reagent (100 μl/well) for 30 min. at room temperature.
11. Wash the wells 5× with TBST.
12. Develop with Turbo TMB.

IGF-1 receptor = molecular target: T2, IGF-1 receptor (Homo sapiens, UniProt P08069); assay: Cellular IGF-1 receptor assay (cell IGF); format: cell-based; as to cell IGF, outcome of primary assay: key: DNH = did not hit in primary assay
T2 construct: expressed in transfected cells; host or cells: NIH3T3/IGF-1R
Method: The following protocol may be used to measure phosphotyrosine level on IGF-1 receptor, which indicates IGF-1 receptor tyrosine kinase activity.
a. The cell line used in this assay is 3T3/IGF-1R, a cell line genetically engineered to overexpresses IGF-1 receptor.
2. […] Incubate for 1 day then replace medium to serum-free medium (90/μl) and incubate in 5% CO2 and 37° C. overnight.
2. Remove the coating solution, and replace with 100 μl Blocking Buffer, and shake for 30 minutes. Remove the blocking buffer and wash the plate just before adding lysate.
1. The drugs are tested under serum-free condition.
2. Dilute drug stock (in 100% DMSO) 1:10 with DMEM in 96-well poly-propylene plate, and transfer 10 μl/well of this solution to the cells to achieve final drug dilution 1:100, and final DMSO concentration of 1.0%. Incubate the cells in 5% CO2 at 37° C. for 2 hours.
3. Prepare fresh cell lysis buffer (HNTG*)
4. After drug incubation for two hours, transfer 10 μl/well of 200 nM IGF-1 Ligand in PBS to the cells (Final Conc. is 20 nM), and incubate at 5% CO2 at 37° C. for 10 minutes.
5. Remove media and add 100 μl/well HNTG* and shake for 10 minutes. Look at cells under microscope to see if they are adequately lysed.
6. Use a 12-channel pipette to scrape the cells from the plate, and homogenize the lysate by repeated aspiration and dispensing. Transfer all the lysate to the antibody coated ELISA plate, and shake for 1 hour.
7. Remove the lysate, wash the plate, transfer anti-pTyr (1:3,000 with TBST) 100 μl/well, and shake for 30 minutes.
8. Remove anti-pTyr, wash the plate, transfer TAGO (1:3,000 with TBST) 100 μl/well, and shake for 30 minutes.
9. Remove detection antibody, wash the plate, and transfer fresh ABTS/H2O2 (1.2 μl H2O2 to 10 ml ABTS) 100 μl/well to the plate to start color development.
10. Measure OD at 410 nm with a reference wavelength of 630 nm in Dynatec MR5000.

EGFR = EGFR (Homo sapiens, UniProt P00533); assay: Biochemical EGFR assay (bio EGFR), ELISA; set-up: A431 cell lysate (Screening Lab, SUGEN, Inc.); endogenous in cells; host or cells: A431; conditions: 50% inhibition of target PTK activity; read-out: bio EGFR (Page 5) IC50
Method: This assay measures the in vitro kinase activity of EGFR using ELISA.
6. A431 cell lysate (Screening Lab, SUGEN, Inc.)
1. Coat Corning 96 well ELISA plates with 0.5 μg […] in
100 μl PBS per well, store overnight at 4° C.
2. Remove unbound SUMO1 from wells by inverting plate to remove liquid. Wash 1× with dH2O. Pat the plate on a paper towel to remove excess liquid.
(§1) 3. Add 150 μl of Blocking Buffer to each well. Incubate for 30 min. at room temperature with shaking.
(§2) 4. Wash plate 3× with deionized water, then once with TBST. Pat plate on a paper towel to remove excess liquid and bubbles.
5. Dilute lysate in PBS (7 μg lysate/100 μl PBS).
(§3) 6. Add 100 μl of diluted lysate to each well. Shake at room temperature for 60 min.
(§4) 7. Wash plates as described in 4, above.
8. Add 120 μl TBS to ELISA plate containing captured EGFR.
9. Dilute test compound 1:10 in TBS in 96-well polypropylene plates (ie. 10 μl compound+90 μl TBS).
10. Add 13.5 μl diluted test compound to ELISA plate.
(§5) 11. Incubate for 30 minutes while shaking at room temperature.
13. After 5 minutes, stop reaction by adding 16.5 μl of 200 mM EDTA (pH 8.0) to each well, shaking continuously. After the EDTA has been added, shake for 1 min.
(§6) 14. Wash 4× with deionized water, twice with TBST.
15. Add 100 μl anti-phosphotyrosine (1:3000 dilution.in TBST) per well. Incubate 30-45 min. at room temperature, with shaking.
(§7) 16. Wash as described in 4, above.
17. Add 100 μl Biosource Goat anti-rabbit IgG peroxidase conjugate (1:2000 dilution in TBST) to each well. Incubate 30 min. at room temperature, with shaking.
(§8) 18. Wash as described in 4, above.
(§9) 19. Add 100 μl of ABTS/H2O2 solution to each well.
20. Incubate 5 to 10 minutes with shaking. Remove any bubbles.
(§10) 21. If necessary stop reaction with the addition of 100 μl 0.2 M HCl per well.
22. Read assay on Dynatech MR7000 ELISA reader. Test Filter: 410 nM Reference Filter: 630 nM

PDGFR = molecular target: T3, PDGFR (Homo sapiens, UniProt P09619); assay: Biochemical PDGFR assay (bio PDGFR), ELISA; conditions: 50% inhibition of target PTK activity; read-out: bio PDGFR IC50
T3 construct: expressed in transfected cells; host or cells: NIH 3T3
Method: This assay measures the in vitro kinase activity of PDGFR using ELISA.
6. PDGFR-β expressing NIH 3T3 cell lysate (Screening Lab, SUGEN, Inc.).
1. Coat Corning 96 well ELISA plates with 0.5 μg 28D4C10 in 100 μl PBS per well, store overnight at 4° C.
2. Remove unbound 28D4C10 from wells by inverting plate to remove liquid. Wash 1× with dH2O. Pat the plate on a paper towel to remove excess liquid.
as §1, §2
5. Dilute lysate in HNTG (10 μg lysate/100 μl HNTG)
as §3, §4
8. Add 80 μl working kinase buffer mix to ELISA plate containing captured PDGFR.
10. Add 10 μl diluted test compound to ELISA plate.
as §5
12. Add 10 μl ATP directly to all wells except negative control well (final well volume should be approximately 100 μl with 20 μM ATP in each well.) Incubate 30 minutes while shaking.
13. After 30 minutes, stop reaction by adding 10 μl of 200 mM EDTA (pH 8.0) to each well.
as §6
15. Add 100 μl anti-phosphotyrosine (1:3000 dilution in TBST) per well. Incubate 30-45 min. at room temperature, with shaking.
as §7
17. […] Incubate 30 min. at room temperature, with shaking.
as §8, §9
20. Incubate 10 to 30 minutes with shaking. Remove any bubbles.
as §10

Pyk2 = Pyk2 (Homo sapiens, UniProt Q14289); assay: Pyk2 assay; format: biochemical; as to Pyk2, outcome of primary assay: key: DNH = did not hit in primary assay
Pyk2, sequence (Q14289 whole entry, species assumed): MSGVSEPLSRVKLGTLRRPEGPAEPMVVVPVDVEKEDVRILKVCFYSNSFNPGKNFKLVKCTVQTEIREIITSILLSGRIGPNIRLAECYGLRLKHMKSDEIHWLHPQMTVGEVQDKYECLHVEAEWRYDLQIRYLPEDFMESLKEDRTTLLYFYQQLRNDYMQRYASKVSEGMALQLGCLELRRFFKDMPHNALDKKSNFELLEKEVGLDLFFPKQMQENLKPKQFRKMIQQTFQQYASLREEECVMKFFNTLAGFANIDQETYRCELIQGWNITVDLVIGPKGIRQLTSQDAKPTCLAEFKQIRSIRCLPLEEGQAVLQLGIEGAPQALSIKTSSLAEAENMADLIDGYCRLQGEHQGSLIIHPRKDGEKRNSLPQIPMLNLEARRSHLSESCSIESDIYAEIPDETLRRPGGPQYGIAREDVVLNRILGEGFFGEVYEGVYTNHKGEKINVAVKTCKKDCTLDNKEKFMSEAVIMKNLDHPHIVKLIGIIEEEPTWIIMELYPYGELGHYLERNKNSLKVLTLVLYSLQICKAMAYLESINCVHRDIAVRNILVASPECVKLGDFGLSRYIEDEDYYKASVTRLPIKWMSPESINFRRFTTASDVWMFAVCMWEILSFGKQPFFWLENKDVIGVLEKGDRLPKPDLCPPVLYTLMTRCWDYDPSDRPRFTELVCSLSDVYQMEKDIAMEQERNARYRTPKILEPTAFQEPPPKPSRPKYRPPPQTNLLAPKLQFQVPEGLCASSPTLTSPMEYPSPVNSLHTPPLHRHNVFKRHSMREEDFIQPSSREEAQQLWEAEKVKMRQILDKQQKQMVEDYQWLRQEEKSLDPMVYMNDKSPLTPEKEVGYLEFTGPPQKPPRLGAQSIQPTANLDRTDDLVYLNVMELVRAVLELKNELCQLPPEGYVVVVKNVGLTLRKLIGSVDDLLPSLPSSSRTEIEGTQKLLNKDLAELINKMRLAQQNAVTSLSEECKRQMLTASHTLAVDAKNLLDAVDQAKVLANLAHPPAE

T3 sequence (P09619 33-1106, species assumed): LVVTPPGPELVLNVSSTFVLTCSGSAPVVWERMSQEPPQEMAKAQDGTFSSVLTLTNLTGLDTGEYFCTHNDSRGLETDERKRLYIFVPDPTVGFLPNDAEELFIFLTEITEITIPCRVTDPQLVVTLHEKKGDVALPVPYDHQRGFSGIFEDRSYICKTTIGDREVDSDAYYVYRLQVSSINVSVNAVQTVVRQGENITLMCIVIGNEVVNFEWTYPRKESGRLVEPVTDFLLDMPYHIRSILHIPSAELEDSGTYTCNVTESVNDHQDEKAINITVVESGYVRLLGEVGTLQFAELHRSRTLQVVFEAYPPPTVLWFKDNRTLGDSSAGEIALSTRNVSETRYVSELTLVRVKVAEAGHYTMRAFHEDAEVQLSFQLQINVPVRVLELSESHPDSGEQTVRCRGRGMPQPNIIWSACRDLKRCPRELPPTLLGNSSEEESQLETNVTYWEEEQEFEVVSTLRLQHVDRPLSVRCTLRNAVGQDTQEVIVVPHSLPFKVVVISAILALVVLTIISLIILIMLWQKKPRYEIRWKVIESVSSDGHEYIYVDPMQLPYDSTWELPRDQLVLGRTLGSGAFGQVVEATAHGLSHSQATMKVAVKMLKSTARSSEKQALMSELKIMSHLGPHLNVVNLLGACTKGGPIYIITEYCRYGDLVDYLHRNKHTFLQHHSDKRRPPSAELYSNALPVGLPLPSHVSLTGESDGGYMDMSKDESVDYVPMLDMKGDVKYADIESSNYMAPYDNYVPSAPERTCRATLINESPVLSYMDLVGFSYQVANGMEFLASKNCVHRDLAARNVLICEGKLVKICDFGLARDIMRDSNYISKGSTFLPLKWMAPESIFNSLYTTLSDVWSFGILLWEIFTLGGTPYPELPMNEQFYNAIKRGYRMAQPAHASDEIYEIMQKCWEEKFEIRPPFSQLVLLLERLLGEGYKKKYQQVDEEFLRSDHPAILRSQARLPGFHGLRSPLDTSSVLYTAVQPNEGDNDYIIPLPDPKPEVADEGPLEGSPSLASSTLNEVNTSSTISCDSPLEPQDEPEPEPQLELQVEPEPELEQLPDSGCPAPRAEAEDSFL
EGFR, sequence (P00533 25-1210): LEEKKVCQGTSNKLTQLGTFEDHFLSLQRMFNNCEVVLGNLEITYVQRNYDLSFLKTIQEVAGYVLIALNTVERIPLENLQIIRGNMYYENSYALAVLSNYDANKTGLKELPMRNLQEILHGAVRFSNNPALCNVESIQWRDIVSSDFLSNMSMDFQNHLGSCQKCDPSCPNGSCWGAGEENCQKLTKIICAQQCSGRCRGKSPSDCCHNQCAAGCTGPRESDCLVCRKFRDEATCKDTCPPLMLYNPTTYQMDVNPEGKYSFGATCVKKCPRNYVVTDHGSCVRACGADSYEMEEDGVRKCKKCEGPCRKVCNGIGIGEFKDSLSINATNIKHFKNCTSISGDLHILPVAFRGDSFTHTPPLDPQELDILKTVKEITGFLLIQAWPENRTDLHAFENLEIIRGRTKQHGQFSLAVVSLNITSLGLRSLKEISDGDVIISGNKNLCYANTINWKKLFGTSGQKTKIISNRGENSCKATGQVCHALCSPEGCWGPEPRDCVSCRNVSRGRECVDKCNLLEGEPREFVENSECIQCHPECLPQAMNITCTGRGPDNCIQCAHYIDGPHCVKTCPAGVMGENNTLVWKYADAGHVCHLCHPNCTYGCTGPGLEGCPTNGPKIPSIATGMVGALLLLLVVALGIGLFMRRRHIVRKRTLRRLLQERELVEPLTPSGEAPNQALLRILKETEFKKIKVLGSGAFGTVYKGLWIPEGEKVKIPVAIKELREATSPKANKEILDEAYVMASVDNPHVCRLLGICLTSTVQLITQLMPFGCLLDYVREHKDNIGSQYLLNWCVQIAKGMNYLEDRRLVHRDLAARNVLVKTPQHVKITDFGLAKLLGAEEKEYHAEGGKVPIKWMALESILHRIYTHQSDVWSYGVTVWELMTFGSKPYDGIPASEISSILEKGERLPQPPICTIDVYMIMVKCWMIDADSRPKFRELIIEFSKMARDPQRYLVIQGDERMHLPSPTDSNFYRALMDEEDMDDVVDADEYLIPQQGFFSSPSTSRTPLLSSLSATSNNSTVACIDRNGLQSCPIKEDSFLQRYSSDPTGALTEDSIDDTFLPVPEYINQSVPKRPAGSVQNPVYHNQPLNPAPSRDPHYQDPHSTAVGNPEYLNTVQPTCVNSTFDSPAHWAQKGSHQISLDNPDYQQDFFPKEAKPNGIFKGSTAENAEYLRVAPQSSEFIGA
T2 sequence (P08069 31-1367): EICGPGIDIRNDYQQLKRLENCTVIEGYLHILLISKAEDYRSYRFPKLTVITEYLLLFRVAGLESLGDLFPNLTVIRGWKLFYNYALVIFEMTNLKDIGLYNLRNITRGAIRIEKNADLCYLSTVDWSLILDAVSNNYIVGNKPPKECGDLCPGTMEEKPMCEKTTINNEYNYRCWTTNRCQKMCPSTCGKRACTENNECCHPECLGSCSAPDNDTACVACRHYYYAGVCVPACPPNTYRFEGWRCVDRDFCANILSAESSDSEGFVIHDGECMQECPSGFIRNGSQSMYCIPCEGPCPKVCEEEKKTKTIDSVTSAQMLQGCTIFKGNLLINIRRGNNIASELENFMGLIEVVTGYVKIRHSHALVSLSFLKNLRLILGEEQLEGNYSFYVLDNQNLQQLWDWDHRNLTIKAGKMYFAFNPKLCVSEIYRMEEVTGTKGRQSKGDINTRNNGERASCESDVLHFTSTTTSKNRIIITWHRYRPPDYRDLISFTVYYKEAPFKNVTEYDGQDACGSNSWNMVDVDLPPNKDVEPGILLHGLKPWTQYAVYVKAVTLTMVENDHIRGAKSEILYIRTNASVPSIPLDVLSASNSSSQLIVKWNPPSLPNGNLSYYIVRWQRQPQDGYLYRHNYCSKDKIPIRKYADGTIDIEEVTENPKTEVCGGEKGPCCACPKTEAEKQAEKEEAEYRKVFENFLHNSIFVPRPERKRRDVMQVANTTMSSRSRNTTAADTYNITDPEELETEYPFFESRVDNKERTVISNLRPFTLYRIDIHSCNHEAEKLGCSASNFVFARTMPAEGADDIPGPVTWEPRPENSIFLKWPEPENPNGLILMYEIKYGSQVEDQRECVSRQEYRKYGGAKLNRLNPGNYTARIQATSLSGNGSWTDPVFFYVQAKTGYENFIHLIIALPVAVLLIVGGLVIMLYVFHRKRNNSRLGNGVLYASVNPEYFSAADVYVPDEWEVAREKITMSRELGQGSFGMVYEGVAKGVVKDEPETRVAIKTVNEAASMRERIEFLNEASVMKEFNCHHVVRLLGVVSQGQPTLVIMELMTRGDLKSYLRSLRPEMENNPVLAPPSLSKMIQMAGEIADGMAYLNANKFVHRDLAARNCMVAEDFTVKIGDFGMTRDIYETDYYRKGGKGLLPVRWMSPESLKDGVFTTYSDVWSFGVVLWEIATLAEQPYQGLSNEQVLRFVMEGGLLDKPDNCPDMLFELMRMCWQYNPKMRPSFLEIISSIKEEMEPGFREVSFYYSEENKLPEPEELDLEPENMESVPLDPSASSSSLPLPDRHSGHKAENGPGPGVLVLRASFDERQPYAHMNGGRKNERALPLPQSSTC

bio SRC, outcome of primary assay (src protein kinase; primary assay)	cell IGF, outcome of primary assay (IGF-1 receptor; primary assay)	pIC50 (EGFR)	pIC50 (PDGFR)	Pyk2, outcome of primary assay (Pyk2; primary assay)	pIC50 (src protein kinase; 50% inhibition of target PTK activity)	cell IGF % Inh (IGF-1 receptor; concentration not given)	pIC50 (Pyk2; 50% inhibition of target PTK activity, read-out: Pyk2 IC50)	SMILES
DNH	DNH	< 4.00	< 4.00	DNH				COc1ccc2c(c1)/C(=C1\C(=O)Nc3ccccc31)CC2 [Compound 4, 3-(6-Methoxyindan-1-ylidene)-1,3-dihydroindol-2-one]
		< 4.00	5.26		< 4.00	96.7% Inh	5.09	Nc1ccc2c(c1)CC/C2=C1/C(=O)Nc2ccccc21 [Compound 6, 3-(5-Aminoindan-1-ylidene)-1,3-dihydroindol-2-one]
